# Assay results taken from paper PMC8371461 (Frontiers in Pharmacology, 2021).
# What was measured:
# [1] = test system: Pregnane X receptor (PXR) signaling pathway; set-up: method as in CHEMBL3215112; conditions: reported activity, data mining; ref CHEMBL3215112; cited from earlier work
# MAP4K4 = biological target: T1, MAP4K4 (Homo sapiens, UniProt O95819); assay: kinome scan; assay type: binding; conditions: 10 µM
# T1 construct: purchased DiscoverX (KINOMEscan)
# CSNK2A1 = biological target: T2, CSNK2A1 (Homo sapiens, UniProt P68400); assay: kinome scan; assay type: binding; conditions: 10 µM
# T2 construct: purchased DiscoverX (KINOMEscan)
# ERK8 = biological target: T3, ERK8 (Homo sapiens, UniProt Q8TD08); assay: kinome scan; assay type: binding; conditions: 10 µM
# T3 construct: purchased DiscoverX (KINOMEscan)
# ERK5 = biological target: T4, ERK5 (Homo sapiens, UniProt Q13164); assay: kinome scan; assay type: binding; conditions: 10 µM
# T4 construct: purchased DiscoverX (KINOMEscan)
# PIK3CA(H1047Y) = biological target: T5, PIK3CA(H1047Y) (Homo sapiens, UniProt P42336, H1047Y); assay: kinome scan; assay type: binding; conditions: 10 µM
# T5 construct: purchased DiscoverX (KINOMEscan)
# ABL1-nonphosphorylated = biological target: T6, ABL1-nonphosphorylated (Homo sapiens, UniProt P00519); assay: kinome scan; assay type: binding; conditions: 10 µM
# T6 construct: purchased DiscoverX (KINOMEscan)
# [2] = biological target: T7, RPS6KA5(Kin.Dom.2-C-terminal) (Homo sapiens, UniProt O75582); assay: kinome scan; assay type: binding; conditions: 10 µM
# T7 construct: RPS6KA5(Kin.Dom.2-C-terminal); purchased DiscoverX (KINOMEscan)
# AURKA = biological target: T8, AURKA (Homo sapiens, UniProt O14965); assay: kinome scan; assay type: binding; conditions: 10 µM
# T8 construct: purchased DiscoverX (KINOMEscan)
# ACVR1B = biological target: T9, ACVR1B (Homo sapiens, UniProt P36896); assay: kinome scan; assay type: binding; conditions: 10 µM
# T9 construct: purchased DiscoverX (KINOMEscan)
# EPHA5 = biological target: T10, EPHA5 (Homo sapiens, UniProt P54756); assay: kinome scan; assay type: binding; conditions: 10 µM
# T10 construct: purchased DiscoverX (KINOMEscan)
# CSK = biological target: T11, CSK (Homo sapiens, UniProt P41240); assay: kinome scan; assay type: binding; conditions: 10 µM
# T11 construct: purchased DiscoverX (KINOMEscan)
# CHEK1 = biological target: T12, CHEK1 (Homo sapiens, UniProt O14757); assay: kinome scan; assay type: binding
# T12 construct: purchased DiscoverX (KINOMEscan)
# TNIK = biological target: T13, TNIK (Homo sapiens, UniProt Q9UKE5); assay: kinome scan; assay type: binding; conditions: 10 µM
# T13 construct: purchased DiscoverX (KINOMEscan)
# MUSK = biological target: T14, MUSK (Homo sapiens, UniProt O15146); assay: kinome scan; assay type: binding; conditions: 10 µM
# T14 construct: purchased DiscoverX (KINOMEscan)
# WEE2 = biological target: T15, WEE2 (Homo sapiens, UniProt P0C1S8); assay: kinome scan; assay type: binding; conditions: 10 µM
# T15 construct: purchased DiscoverX (KINOMEscan)
# EPHA4 = biological target: T16, EPHA4 (Homo sapiens, UniProt P54764); assay: kinome scan; assay type: binding; conditions: 10 µM
# T16 construct: purchased DiscoverX (KINOMEscan)
# EPHB6 = biological target: T17, EPHB6 (Homo sapiens, UniProt O15197); assay: kinome scan; assay type: binding; conditions: 10 µM
# T17 construct: purchased DiscoverX (KINOMEscan)
# FLT1 = biological target: T18, FLT1 (Homo sapiens, UniProt P17948); assay: kinome scan; assay type: binding; conditions: 10 µM
# T18 construct: purchased DiscoverX (KINOMEscan)
# [3] = biological target: T19, ABL1(Q252H)-nonphosphorylated (Homo sapiens, UniProt P00519, Q252H); assay: kinome scan; assay type: binding; conditions: 10 µM
# T19 construct: purchased DiscoverX (KINOMEscan)
# CAMK4 = biological target: T20, CAMK4 (Homo sapiens, UniProt Q16566); assay: kinome scan; assay type: binding; conditions: 10 µM
# T20 construct: purchased DiscoverX (KINOMEscan)
# [4] = biological target: Proto-oncogen Ser/Thr kinase PIM1 (PIM1) (Homo sapiens, UniProt P11309); assay: Dundee activity test; assay type: biochemical
# Source text: (§1) In silico inverse screening is a ligand-driven methodology aiming at identifying a specific target for a given ligand. […] Table 2 contains for each kinase the name and acronym, the PDB identifier of the best-ranked structure, the ranking position in percent, the heavy atom RMSD of the co-crystallized ligand as a control, and the experimental confirmation from the kinome scan by Ambit Biosciences (http://www.ambitbio.com/) performed at the University of Dundee according to a previously described procedure ([Bain et al., 2003]).
# [5] = biological target: Mitogen-activating protein kinase interacting Ser/Thr kinase (MNK2) (Homo sapiens, UniProt Q9HBH9); assay: Dundee activity test; assay type: biochemical
# Source text: as §1
# EPHA1 = biological target: T21, EPHA1 (Homo sapiens, UniProt P21709); assay: kinome scan; assay type: binding; conditions: 10 µM
# T21 construct: purchased DiscoverX (KINOMEscan)
# MERTK = biological target: T22, MERTK (Homo sapiens, UniProt Q12866); assay: kinome scan; assay type: binding; conditions: 10 µM
# T22 construct: purchased DiscoverX (KINOMEscan)
# PRKCE = biological target: T23, PRKCE (Homo sapiens, UniProt Q02156); assay: kinome scan; assay type: binding; conditions: 10 µM
# T23 construct: purchased DiscoverX (KINOMEscan)
# [6] = test system: Tau Fibril Formation, Thioflavin T Binding; set-up: method as in CHEMBL1614421; conditions: reported activity, data mining; ref CHEMBL1614421; cited from earlier work
# PRKD2 = biological target: T24, PRKD2 (Homo sapiens, UniProt Q9BZL6); assay: kinome scan; assay type: binding; conditions: 10 µM
# T24 construct: purchased DiscoverX (KINOMEscan)
# CSNK1A1 = biological target: T25, CSNK1A1 (Homo sapiens, UniProt P48729); assay: kinome scan; assay type: binding; conditions: 10 µM
# T25 construct: purchased DiscoverX (KINOMEscan)
# TLK2 = biological target: T26, TLK2 (Homo sapiens, UniProt Q86UE8); assay: kinome scan; assay type: binding; conditions: 10 µM
# T26 construct: purchased DiscoverX (KINOMEscan)
# MST4 = biological target: T27, MST4 (Homo sapiens, UniProt Q9P289); assay: kinome scan; assay type: binding; conditions: 10 µM
# T27 construct: purchased DiscoverX (KINOMEscan)
# HIPK2 = biological target: T28, HIPK2 (Homo sapiens, UniProt Q9H2X6); assay: kinome scan; assay type: binding; conditions: 10 µM
# T28 construct: purchased DiscoverX (KINOMEscan)
# IGF1R = biological target: T29, IGF1R (Homo sapiens, UniProt P08069); assay: kinome scan; assay type: binding; conditions: 10 µM
# T29 construct: purchased DiscoverX (KINOMEscan)
# MYLK2 = biological target: T30, MYLK2 (Homo sapiens, UniProt Q9H1R3); assay: kinome scan; assay type: binding; conditions: 10 µM
# T30 construct: purchased DiscoverX (KINOMEscan)
# PAK2 = biological target: T31, PAK2 (Homo sapiens, UniProt Q13177); assay: kinome scan; assay type: binding; conditions: 10 µM
# T31 construct: purchased DiscoverX (KINOMEscan)
# ABL2 = biological target: T32, ABL2 (Homo sapiens, UniProt P42684); assay: kinome scan; assay type: binding; conditions: 10 µM
# T32 construct: purchased DiscoverX (KINOMEscan)
# BRSK2 = biological target: T33, BRSK2 (Homo sapiens, UniProt Q8IWQ3); assay: kinome scan; assay type: binding; conditions: 10 µM
# T33 construct: purchased DiscoverX (KINOMEscan)
# CDC2L1 = biological target: T34, CDC2L1 (Homo sapiens, UniProt P21127); assay: kinome scan; assay type: binding; conditions: 10 µM
# T34 construct: purchased DiscoverX (KINOMEscan)
# T12 sequence (O14757 whole entry): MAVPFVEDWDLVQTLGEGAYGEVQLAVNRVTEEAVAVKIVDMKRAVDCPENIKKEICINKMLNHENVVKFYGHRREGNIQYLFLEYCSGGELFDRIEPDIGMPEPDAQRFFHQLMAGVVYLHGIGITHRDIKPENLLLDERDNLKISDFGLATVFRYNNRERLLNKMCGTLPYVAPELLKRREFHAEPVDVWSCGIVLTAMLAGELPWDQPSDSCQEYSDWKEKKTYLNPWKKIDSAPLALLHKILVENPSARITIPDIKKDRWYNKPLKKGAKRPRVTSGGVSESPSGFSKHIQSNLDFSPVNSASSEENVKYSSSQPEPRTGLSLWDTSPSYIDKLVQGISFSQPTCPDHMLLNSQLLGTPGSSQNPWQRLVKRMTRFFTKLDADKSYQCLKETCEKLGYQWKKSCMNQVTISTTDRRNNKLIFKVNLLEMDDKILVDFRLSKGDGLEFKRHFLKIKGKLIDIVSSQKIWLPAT
# T23 sequence (Q02156 whole entry): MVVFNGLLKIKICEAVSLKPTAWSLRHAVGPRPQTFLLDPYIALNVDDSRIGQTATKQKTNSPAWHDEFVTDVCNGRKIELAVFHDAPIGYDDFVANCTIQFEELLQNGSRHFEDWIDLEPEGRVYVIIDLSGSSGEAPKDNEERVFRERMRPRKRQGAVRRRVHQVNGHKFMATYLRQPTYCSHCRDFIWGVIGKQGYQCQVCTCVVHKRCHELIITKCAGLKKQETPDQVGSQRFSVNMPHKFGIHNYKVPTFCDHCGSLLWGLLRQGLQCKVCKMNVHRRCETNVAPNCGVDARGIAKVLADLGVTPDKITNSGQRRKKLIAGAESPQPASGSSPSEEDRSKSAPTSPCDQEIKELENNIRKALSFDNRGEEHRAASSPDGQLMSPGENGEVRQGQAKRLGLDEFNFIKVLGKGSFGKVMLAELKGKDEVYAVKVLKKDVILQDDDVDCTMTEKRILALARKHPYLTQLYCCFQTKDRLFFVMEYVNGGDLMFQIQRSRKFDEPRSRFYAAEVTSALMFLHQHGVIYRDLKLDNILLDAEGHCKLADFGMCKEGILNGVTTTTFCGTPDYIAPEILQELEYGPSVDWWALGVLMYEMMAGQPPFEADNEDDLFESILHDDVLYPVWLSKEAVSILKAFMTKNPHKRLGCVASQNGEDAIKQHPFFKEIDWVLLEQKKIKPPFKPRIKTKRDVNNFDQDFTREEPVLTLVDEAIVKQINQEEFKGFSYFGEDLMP
# T24 sequence (Q9BZL6 whole entry): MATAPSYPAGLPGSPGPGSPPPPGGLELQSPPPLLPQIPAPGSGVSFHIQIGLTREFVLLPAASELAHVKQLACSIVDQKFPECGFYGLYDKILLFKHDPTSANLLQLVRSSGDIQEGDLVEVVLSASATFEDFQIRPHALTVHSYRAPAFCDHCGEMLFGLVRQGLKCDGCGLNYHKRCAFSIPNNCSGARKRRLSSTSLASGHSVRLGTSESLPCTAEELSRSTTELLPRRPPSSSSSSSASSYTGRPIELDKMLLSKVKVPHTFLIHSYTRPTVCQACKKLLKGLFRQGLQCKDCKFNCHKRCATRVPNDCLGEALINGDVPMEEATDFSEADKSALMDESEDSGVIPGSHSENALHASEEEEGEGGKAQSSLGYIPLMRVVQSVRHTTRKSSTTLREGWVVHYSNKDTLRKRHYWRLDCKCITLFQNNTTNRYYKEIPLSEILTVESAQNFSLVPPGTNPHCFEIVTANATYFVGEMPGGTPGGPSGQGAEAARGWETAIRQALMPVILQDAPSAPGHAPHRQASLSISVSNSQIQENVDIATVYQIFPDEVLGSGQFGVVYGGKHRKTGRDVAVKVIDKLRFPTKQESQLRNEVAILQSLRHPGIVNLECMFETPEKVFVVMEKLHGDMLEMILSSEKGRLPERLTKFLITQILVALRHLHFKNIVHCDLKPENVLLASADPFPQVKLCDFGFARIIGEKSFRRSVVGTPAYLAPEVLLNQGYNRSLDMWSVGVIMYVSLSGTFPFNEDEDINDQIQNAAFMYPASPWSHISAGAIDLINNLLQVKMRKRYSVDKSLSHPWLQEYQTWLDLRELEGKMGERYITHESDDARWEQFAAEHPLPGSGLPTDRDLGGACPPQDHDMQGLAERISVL
# T26 sequence (Q86UE8 whole entry): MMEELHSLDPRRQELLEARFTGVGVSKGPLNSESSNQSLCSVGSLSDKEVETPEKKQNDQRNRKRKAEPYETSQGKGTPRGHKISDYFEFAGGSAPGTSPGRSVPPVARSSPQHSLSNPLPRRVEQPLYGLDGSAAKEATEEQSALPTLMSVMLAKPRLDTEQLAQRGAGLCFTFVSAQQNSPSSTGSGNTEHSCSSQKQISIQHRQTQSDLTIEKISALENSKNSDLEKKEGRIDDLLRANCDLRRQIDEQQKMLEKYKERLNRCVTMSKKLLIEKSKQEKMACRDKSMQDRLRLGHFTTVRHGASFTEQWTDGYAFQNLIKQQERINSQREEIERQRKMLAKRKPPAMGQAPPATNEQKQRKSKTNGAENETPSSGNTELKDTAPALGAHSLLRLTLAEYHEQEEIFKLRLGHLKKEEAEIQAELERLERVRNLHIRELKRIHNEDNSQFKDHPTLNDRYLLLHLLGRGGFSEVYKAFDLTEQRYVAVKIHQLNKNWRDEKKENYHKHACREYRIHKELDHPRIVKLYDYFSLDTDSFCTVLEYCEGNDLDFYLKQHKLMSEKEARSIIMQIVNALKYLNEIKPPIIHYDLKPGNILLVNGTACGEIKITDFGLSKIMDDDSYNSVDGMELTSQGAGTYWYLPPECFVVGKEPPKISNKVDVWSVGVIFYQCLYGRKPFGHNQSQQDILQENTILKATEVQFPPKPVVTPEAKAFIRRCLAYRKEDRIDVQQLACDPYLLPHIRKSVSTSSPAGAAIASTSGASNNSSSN
# T9 sequence (P36896 24-505): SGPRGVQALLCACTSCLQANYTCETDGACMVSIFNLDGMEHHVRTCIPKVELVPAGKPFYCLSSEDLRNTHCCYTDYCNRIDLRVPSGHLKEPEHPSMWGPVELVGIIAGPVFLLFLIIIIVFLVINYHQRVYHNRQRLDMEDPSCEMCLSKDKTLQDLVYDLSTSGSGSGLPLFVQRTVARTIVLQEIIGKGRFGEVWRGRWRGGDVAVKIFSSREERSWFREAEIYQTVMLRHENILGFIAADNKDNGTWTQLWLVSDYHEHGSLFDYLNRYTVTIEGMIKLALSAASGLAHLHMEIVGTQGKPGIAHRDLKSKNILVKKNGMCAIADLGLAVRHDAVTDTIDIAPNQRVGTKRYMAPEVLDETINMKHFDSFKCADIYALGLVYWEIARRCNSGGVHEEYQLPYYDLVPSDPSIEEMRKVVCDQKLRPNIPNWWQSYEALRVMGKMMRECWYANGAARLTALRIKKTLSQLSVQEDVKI
# T22 sequence (Q12866 21-999): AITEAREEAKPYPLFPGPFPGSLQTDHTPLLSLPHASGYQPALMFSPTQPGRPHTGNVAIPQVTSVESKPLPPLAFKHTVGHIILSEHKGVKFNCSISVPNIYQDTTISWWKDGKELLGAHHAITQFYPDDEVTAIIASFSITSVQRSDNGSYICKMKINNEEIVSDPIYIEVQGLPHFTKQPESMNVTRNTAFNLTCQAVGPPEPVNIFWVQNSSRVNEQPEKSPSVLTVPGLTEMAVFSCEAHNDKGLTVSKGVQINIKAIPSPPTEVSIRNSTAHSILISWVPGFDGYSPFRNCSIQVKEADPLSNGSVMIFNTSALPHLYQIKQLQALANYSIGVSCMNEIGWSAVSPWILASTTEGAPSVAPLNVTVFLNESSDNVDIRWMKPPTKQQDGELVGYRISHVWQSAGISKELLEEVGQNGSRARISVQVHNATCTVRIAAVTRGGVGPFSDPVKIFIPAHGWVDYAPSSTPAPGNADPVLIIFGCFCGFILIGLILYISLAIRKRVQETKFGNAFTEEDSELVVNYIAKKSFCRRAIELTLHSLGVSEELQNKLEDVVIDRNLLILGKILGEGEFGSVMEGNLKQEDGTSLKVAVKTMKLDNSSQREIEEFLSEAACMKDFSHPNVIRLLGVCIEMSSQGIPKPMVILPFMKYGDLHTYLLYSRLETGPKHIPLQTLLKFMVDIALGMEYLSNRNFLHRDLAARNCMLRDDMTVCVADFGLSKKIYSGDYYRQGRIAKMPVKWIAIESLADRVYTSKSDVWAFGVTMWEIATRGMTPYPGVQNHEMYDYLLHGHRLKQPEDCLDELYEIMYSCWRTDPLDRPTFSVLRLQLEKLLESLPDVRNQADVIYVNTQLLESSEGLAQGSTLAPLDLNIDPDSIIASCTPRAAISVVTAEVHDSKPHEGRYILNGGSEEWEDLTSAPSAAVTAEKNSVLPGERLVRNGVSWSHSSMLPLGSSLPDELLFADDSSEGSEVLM
# T2 sequence (P68400 whole entry): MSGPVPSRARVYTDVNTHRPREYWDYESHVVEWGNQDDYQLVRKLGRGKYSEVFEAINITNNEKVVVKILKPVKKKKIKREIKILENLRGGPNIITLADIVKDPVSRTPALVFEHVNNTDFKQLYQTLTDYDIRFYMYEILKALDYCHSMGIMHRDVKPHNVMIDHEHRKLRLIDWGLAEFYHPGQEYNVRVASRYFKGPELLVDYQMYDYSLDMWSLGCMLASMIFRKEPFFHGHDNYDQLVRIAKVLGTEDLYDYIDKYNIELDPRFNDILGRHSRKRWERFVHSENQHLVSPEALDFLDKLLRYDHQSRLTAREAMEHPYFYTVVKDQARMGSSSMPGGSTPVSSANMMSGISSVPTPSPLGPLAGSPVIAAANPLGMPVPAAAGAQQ
# T7 sequence (O75582 426-687 limits assumed): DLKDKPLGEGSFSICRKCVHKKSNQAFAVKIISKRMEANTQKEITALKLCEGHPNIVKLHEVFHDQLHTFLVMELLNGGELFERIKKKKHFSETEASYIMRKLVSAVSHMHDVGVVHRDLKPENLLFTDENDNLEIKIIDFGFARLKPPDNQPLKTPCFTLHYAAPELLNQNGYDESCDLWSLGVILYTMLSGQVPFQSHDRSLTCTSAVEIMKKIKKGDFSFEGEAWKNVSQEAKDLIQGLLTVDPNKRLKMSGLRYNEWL
compound,measurement,setting,value
"Nc1ccc(N=Nc2ccccc2)c(N)n1 [phenazopyridine, 2,6-diamino-3-(phenylazo)pyridine]",Concentration,[1],7.9 µM
same,kinase inhibition,MAP4K4,100
same,kinase inhibition,CSNK2A1,86
same,kinase inhibition,ERK8,100
same,kinase inhibition,ERK5,95
same,kinase inhibition,PIK3CA(H1047Y),100
same,kinase inhibition,ABL1-nonphosphorylated,86
same,kinase inhibition,[2],100
same,kinase inhibition,AURKA,100
same,kinase inhibition,ACVR1B,86
same,kinase inhibition,EPHA5,97
same,kinase inhibition,CSK,100
same,kinase inhibition,"CHEK1; CHEK1, 10 µM",100
same,remaining binding at 10 µM,"CHEK1; CHK1, read-out: Kinome scan (% of control at 10 µM)",100%
same,kinase inhibition,TNIK,75
same,kinase inhibition,MUSK,91
same,kinase inhibition,WEE2,100
same,kinase inhibition,EPHA4,86
same,kinase inhibition,EPHB6,67
same,remaining binding (% of control),FLT1,90
same,kinase inhibition,[3],90
same,kinase inhibition,CAMK4,67
same,remaining activity at 10 µM,[4],49%
same,remaining activity at 10 µM,[5],20%
same,kinase inhibition,EPHA1,100
same,kinase inhibition,MERTK,100
same,kinase inhibition,PRKCE,100
same,Concentration,[6],3.9 µM
same,kinase inhibition,PRKD2,100
same,kinase inhibition,CSNK1A1,85
same,kinase inhibition,TLK2,100
same,kinase inhibition,MST4,96
same,kinase inhibition,HIPK2,89
same,kinase inhibition,IGF1R,100
same,kinase inhibition,MYLK2,91
same,kinase inhibition,PAK2,97
same,kinase inhibition,ABL2,96
same,kinase inhibition,BRSK2,90
same,kinase inhibition,CDC2L1,90
